Test results reported in DBAASP.
Converted amounts (≈) assume the structure as drawn. One block for each molecule: values may come before it.

Experiments:
Assay in all cases: ≥ marks a high value that may be exact or a test limit, other limits are often not marked, values filed in µg/mL are converted to µM
[1] = system: Pseudomonas aeruginosa ATCC 10145
[2] = system: Candida albicans ATCC 10231
[3] = system: Escherichia coli ATCC 2592
[4] = system: Staphylococcus aureus ATCC 33591
[5] = system: Cryptococcus neoformans ATCC 32045
[6] = system: Pseudomonas aeruginosa PA214
Escherichia coli K-12 = system: Escherichia coli K-12
[7] = system: Pseudomonas aeruginosa PAO1
[8] = system: Pseudomonas aeruginosa PA330
Escherichia coli UB1005 = system: Escherichia coli UB1005
[9] = system: Pseudomonas aeruginosa H187
[10] = system: Bacillus amyloliquefaciens ATCC 23842
[11] = system: Bacillus subtilis ATCC 6051
[12] = system: Proteus mirabilis ATCC 35659
[13] = system: Bacillus licheniformis ATCC 14580
[14] = system: Enterococcus faecium 5F-10
[15] = system: Enterococcus faecalis 1F-1
[16] = system: Escherichia coli ATCC 25922
[17] = system: Bacillus cereus ATCC 14579
[18] = system: Staphylococcus aureus ATCC 29213
[19] = system: Salmonella enterica ATCC H9812
[20] = system: Bacillus cereus CMCC 6303
[21] = system: Salmonella enterica subsp. enterica serovar Typhi CMCC 50071
[22] = system: Listeria monocytogenes CMCC 54004
[23] = system: Salmonella enterica subsp. enterica serovar Typhimurium C77-31
[24] = system: Cronobacter sakazakii ATCC 29544
[25] = system: Salmonella enterica subsp. enterica serovar Typhimurium ATCC 14028
[26] = system: Staphylococcus aureus ATCC 25923
[27] = system: Staphylococcus aureus CMCC 26074
[28] = system: Salmonella enterica subsp. enterica CMCC 47020
[29] = system: Salmonella enterica subsp. enterica serovar Pullorum C79-13
[30] = system: Salmonella typhimurium KCTC 1926
[31] = system: Staphylococcus epidermidis KCTC 1917
[32] = system: Escherichia coli KCTC 1682
[33] = system: Bacillus subtilis KCTC 3068
[34] = system: Staphylococcus aureus KCTC 1621
[35] = system: Pseudomonas aeruginosa KCTC 1637
[36] = system: Staphylococcus aureus SH1000
[37] = system: Escherichia coli DH5alpha

MIC [6]: ≥ 50 µM
MIC (Escherichia coli K-12): 12.5 µM (≈ 22.9 µg/mL)
MIC [7]: 25 µM (≈ 45.9 µg/mL)
MIC [8]: ≥ 50 µM
Structure (SMILES): C[C@H](NC(=O)[C@H](C)NC(=O)[C@H](CCCCN)NC(=O)[C@H](Cc1ccccc1)NC(=O)[C@H](C)NC(=O)[C@H](CCCCN)NC(=O)[C@H](C)NC(=O)[C@H](Cc1c[nH]c2ccccc12)NC(=O)[C@H](C)NC(=O)[C@H](CCCCN)NC(=O)[C@H](C)NC(=O)[C@H](Cc1ccccc1)NC(=O)[C@H](C)NC(=O)[C@H](CCCCN)NC(=O)[C@H](C)NC(=O)[C@H](CCCCN)NC(=O)[C@@H](N)CCCCN)C(N)=O [KKAKAFAKAWAKAFKAA]

MIC [6]: 3.1 µM (≈ 6.21 µg/mL)
MIC (Escherichia coli K-12): 3.1 µM (≈ 6.21 µg/mL)
MIC [7]: 3.1 µM (≈ 6.21 µg/mL)
MIC [8]: 6.3 µM (≈ 12.6 µg/mL)
Structure (SMILES): CC(C)C[C@H](NC(=O)[C@H](C)NC(=O)[C@H](CCCCN)NC(=O)[C@H](Cc1ccccc1)NC(=O)[C@H](CC(C)C)NC(=O)[C@H](CCCCN)NC(=O)[C@H](C)NC(=O)[C@H](Cc1c[nH]c2ccccc12)NC(=O)[C@H](CC(C)C)NC(=O)[C@H](CCCCN)NC(=O)[C@H](CC(C)C)NC(=O)[C@H](Cc1ccccc1)NC(=O)[C@H](C)NC(=O)[C@H](C)NC(=O)[C@H](CCCCN)NC(=O)[C@H](CCCCN)NC(=O)[C@@H](N)CCCCN)C(N)=O [KKKAAFLKLWAKLFKAL]

MIC (Escherichia coli UB1005): 1.72 µM (≈ 5 µg/mL)
MIC [9]: 3.43 µM (≈ 10 µg/mL)
Structure (SMILES): CC[C@H](C)[C@H](NC(=O)[C@H](Cc1ccccc1)NC(=O)[C@H](CCCCN)NC(=O)[C@H](CCCCN)NC(=O)[C@H](Cc1c[nH]c2ccccc12)NC(=O)[C@@H](N)CCCCN)C(=O)N[C@@H](CCCCN)C(=O)N[C@@H](CCC(=O)O)C(=O)N[C@@H](CC(C)C)C(=O)N[C@@H](CCC(N)=O)C(=O)N[C@@H](CCCCN)C(=O)N[C@H](C(=O)N[C@@H](CC(C)C)C(=O)N[C@@H](C)C(=O)N1CCC[C@H]1C(=O)NCC(=O)NCC(=O)N[C@@H](CC(C)C)C(=O)N[C@@H](CC(C)C)C(=O)N[C@@H](CO)C(=O)N[C@@H](CC(N)=O)C(=O)N[C@H](C(=O)N[C@H](C(=O)N[C@H](C(=O)N[C@@H](CO)C(=O)N[C@@H](CC(C)C)C(=O)O)[C@@H](C)O)C(C)C)[C@@H](C)CC)C(C)C [KWKKFIKELQKVLAPGGLLSNIVTSL]

MIC [36]: ≥ 50 µM
MIC [37]: ≥ 50 µM
Structure (SMILES): CC[C@H](C)[C@H](NC(=O)[C@H](C)NC(=O)[C@H](CCCCN)NC(=O)[C@@H](NC(=O)[C@H](CC(C)C)NC(=O)[C@H](CCCCN)NC(=O)[C@H](CCCCN)NC(=O)[C@@H](NC(=O)CNC(=O)[C@H](C)NC(=O)[C@H](Cc1ccccc1)NC(=O)[C@H](Cc1ccc(O)cc1)NC(=O)[C@@H]1CCCN1C(=O)[C@H](CC(=O)O)NC(=O)[C@@H](N)Cc1c[nH]c2ccccc12)C(C)C)[C@@H](C)O)C(=O)N[C@@H](CC(C)C)C(=O)N[C@@H](C)C(=O)N[C@H](C(=O)N[C@@H](CCCN=C(N)N)C(=O)N[C@@H](C)C(N)=O)C(C)C [WDPYFAGVKKLTKAILAVRA]

Second part, the molecule before the results:

Structure (SMILES): C[C@H](NC(=O)[C@H](Cc1ccccc1)NC(=O)[C@@H](N)CCCCN)C(=O)N[C@@H](CCCCN)C(=O)O [KFAK]
MIC [1]: ≥ 1010 µM
MIC [2]: > 1010 µM
MIC [3]: ≥ 507 µM
MIC [4]: ≥ 1010 µM
MIC [5]: ≥ 1010 µM

Structure (SMILES): C[C@H](NC(=O)[C@H](CCCCN)NC(=O)[C@H](CCCCN)NC(=O)[C@H](CCCCN)NC(=O)[C@H](C)NC(=O)[C@H](CCCCN)NC(=O)[C@H](CCCCN)NC(=O)[C@H](CCCCN)NC(=O)[C@H](C)NC(=O)[C@H](CCCCN)NC(=O)[C@H](CCCCN)NC(=O)[C@H](CCCCN)NC(=O)[C@H](C)NC(=O)[C@H](CCCCN)NC(=O)[C@H](CCCCN)NC(=O)[C@H](CCCCN)NC(=O)[C@H](C)NC(=O)[C@H](CCCCN)NC(=O)[C@H](CCCCN)NC(=O)[C@H](CCCCN)NC(=O)[C@H](C)NC(=O)[C@H](CCCCN)NC(=O)[C@H](CCCCN)NC(=O)[C@H](CCCCN)NC(=O)[C@H](C)NC(=O)[C@H](CCCCN)NC(=O)[C@@H](N)CCCCN)C(=O)N[C@@H](CCCCN)C(=O)O [KKAKKKAKKKAKKKAKKKAKKKAKKKAK]
MIC [1]: ≥ 39 µM
MIC [2]: > 78 µM
MIC [3]: 13.7 µM (≈ 43.8 µg/mL)
MIC [5]: 19.6 µM (≈ 63 µg/mL)

Structure (SMILES): CC(C)C[C@H](NC(=O)[C@@H](N)CC(C)C)C(=O)N[C@@H](CO)C(=O)N[C@@H](CCCN=C(N)N)C(=O)N[C@H](C(=O)O)C(C)C [LLSRV]
MIC [10]: ≥ 218 µM
MIC [11]: ≥ 218 µM
MIC [7]: > 218 µM
MIC [12]: ≥ 218 µM
MIC [13]: ≥ 218 µM
MIC [14]: ≥ 218 µM
MIC [15]: ≥ 218 µM
MIC [16]: > 218 µM
MIC [17]: ≥ 218 µM
MIC [18]: > 218 µM
MIC [19]: ≥ 218 µM

Structure (SMILES): CC[C@H](C)[C@H](NC(=O)[C@H](CCCN=C(N)N)NC(=O)[C@H](CCCN=C(N)N)NC(=O)[C@H](CCCCN)NC(=O)[C@@H](N)CCCN=C(N)N)C(=O)N[C@H](C(=O)N[C@H](C(=O)N[C@H](C(=O)N[C@@H](CCCN=C(N)N)C(=O)N[C@@H](CCCN=C(N)N)C(=O)N[C@@H](CCCCN)C(=O)N[C@@H](CCCN=C(N)N)C(N)=O)[C@@H](C)CC)C(C)C)C(C)C [RKRRIVVIRRKR]
MIC [20]: ≥ 128 µM
MIC [21]: ≥ 256 µM
MIC [22]: ≥ 32 µM
MIC [23]: ≥ 256 µM
MIC [24]: ≥ 256 µM
MIC [25]: 128 µM (≈ 209 µg/mL)
MIC [26]: > 256 µM
MIC (Escherichia coli UB1005): ≥ 256 µM
MIC [27]: ≥ 256 µM
MIC [28]: ≥ 256 µM
MIC [29]: ≥ 256 µM

Structure (SMILES): CC[C@H](C)[C@@H]1NC(=O)[C@H](CCCN=C(N)N)NC(=O)[C@@H](NC(=O)[C@H](CC(C)C)NC(=O)[C@@H](N)CCCN=C(N)N)CSSC[C@@H](C(=O)N[C@@H](CCCN=C(N)N)C(N)=O)NC(=O)[C@H](C(C)C)NC(=O)[C@H](CCCN=C(N)N)NC(=O)[C@H]([C@@H](C)CC)NC(=O)[C@H](C(C)C)NC(=O)[C@H](C(C)C)NC1=O [RLCRIVVIRVCR]
MIC [30]: 4.21 µM (≈ 6.24 µg/mL)
MIC [20]: ≥ 64 µM
MIC [31]: 4.21 µM (≈ 6.24 µg/mL)
MIC [21]: ≥ 64 µM
MIC [22]: ≥ 128 µM
MIC [23]: ≥ 256 µM
MIC [24]: ≥ 256 µM
MIC [32]: 8.41 µM (≈ 12.5 µg/mL)
MIC [33]: 4.21 µM (≈ 6.24 µg/mL)
MIC [34]: 4.21 µM (≈ 6.24 µg/mL)
MIC [25]: 128 µM (≈ 190 µg/mL)
MIC [26]: > 256 µM
MIC (Escherichia coli UB1005): ≥ 128 µM
MIC [35]: 16.8 µM (≈ 25 µg/mL)
MIC [27]: ≥ 256 µM
MIC [28]: ≥ 128 µM
MIC [29]: ≥ 256 µM
